The test system of data set [1] is CysLT1R-mediated amyloid-beta generation. Particulars: cited from earlier work.
Data set [2] relates to neural progenitor cells (NPC). Particulars: cited from earlier work; for influence on the proliferation of NPCs: treatment of NPCs with leukotriene.
Another data set relates to young rats. Particulars: intraperitoneal, combination treatment with rofecoxib; cited from earlier work.
Another data set relates to neural stem cell (NSC). To be noted: cited from earlier work.
The nature of data set [3]: Body weight on day 1 and day 42 of treatment. To be noted: young and old rats, 10 mg kg^-1 p.o. daily. Type of data set: in vivo, rat. Here is the method: For the analysis of cell survival and cell differentiation, all rats received intraperitoneal injections of BrdU (Sigma, Germany) at 50 mg kg^−1 of body weight dissolved in 0.9% saline solution on day 12, 13, 14 and 15.
GPR17 is highly expressed in food-intake-regulating Agrp Neurons, and intraventricular infusion of GPR17 agonists elevates food intake (Ren, 2012, Cell, 8; 149(6):1314-26). […] Therefore, each rat was weighed at the beginning of the experiment (day 1) and directly before the perfusion (day 42).

The subject of data set [4] is Alzheimer's disease patients. Particulars: cited from earlier work.

The text below walks through data of patent US20150322049A1, “LEUKOTRIENE PATHWAY ANTAGONISTS FOR THE TREATMENT OF DEMENTIA, COGNITIVE DEFICITS IN PARKINSON'S DISEASE AND/OR LEARNING AND MEMORY DEFICIENCIES IN PARKINSON'S DISEASE” (priority 2012, published 2015).

Where two headings read alike, the source gives them in different places.

With pranlukast, the “leukotriene D4-induced increase in amyloid-beta generation” value in data set [1] (3 month old mice, injected bilaterally 2.5 mm below the dura) is “inhibited”. In data set [1] (mice, sub-dura injection), the “learning impairment and memory loss caused by leukotriene D4 treatment” value is reported as “improves”.

Regarding `CCCCC/C=C\C\C=C/C=C/C=C/[C@@H](SC[C@H](N)C(=O)NCC(=O)O)[C@@H](O)CCCC(=O)O` [Leukotriene D4], the effect on cognition result in data set [1] (3 month old mice) is “induce cognitive impairment”. Moreover, in data set [2], the “influence on the proliferation of NPCs” value is recorded as “no influence”.

For the compound `CCCCC/C=C\C\C=C/C=C/C=C/[C@@H](SC[C@H](NC(=O)CC[C@H](N)C(=O)O)C(=O)NCC(=O)O)[C@@H](O)CCCC(=O)O` [Leukotriene C4], the “influence on the proliferation of NPCs” value in data set [2] was “no influence”.

Take `CC(C)(O)c1ccccc1CC[C@@H](SCC1(CC(=O)O)CC1)c1cccc(/C=C/c2ccc3ccc(Cl)cc3n2)c1` [Montelukast, montelukast]: the “effect against kainic acid-induced cognitive dysfunction in combination with rofecoxib” value in the data set with young rats was “potentiates the protective effect of rofecoxib”. In addition, the NSC proliferation entry with neural stem cell (NSC) (15 μM) was “significantly increase”. In addition, the “proliferative potential of the NSCs” value in the data set with neural stem cell (NSC) (30 μM) and with neural stem cell (NSC) (100 μM) was “significantly reduced” in each case. The figures for the “body weight vs vehicle treated counterparts” value in data set [3] and in data set [3] (listed as montelukast) were “did not differ” and “remained stable”, respectively. The NPC proliferation rate entry in data set [2] (1 μM) and in data set [2] (30 μM) was “did not alter” each time. Further, the NPC proliferation result was “increased proliferation” in data set [2] (10 μM), “increased proliferation” in data set [2] (15 μM), “significant reduction” in data set [2] (50 μM) and “significant reduction” in data set [2] (100 μM).

On to `COc1ccc2c(c1)c(CC(=O)O)c(C)n2C(=O)c1ccc(Cl)cc1` [indomethacin], for which the mental functions result in data set [4] is recorded as “stabilize mental functions”.
